Source: patent publication EP3212201B1, “NUCLEOSIDE KINASE INHIBITORS” (BCI Pharma, priority 2014, dated 2016)

Legend:
Experiment in all cases: FRET-based coupled-enzyme protein kinase inhibition assay
Format in all cases: biochemical
Settings in all cases: compound at 10 µM, 1% DMSO
[1] = molecular target: SYK (Homo sapiens, UniProt P43405)
Method: (§1) A biochemical assay was then performed in order to measure the protein kinase inhibition. It employed a fluorescence-based coupled-enzyme format and was based on the differential sensitivity of phosphorylated and non-phosphorylated peptides to proteolytic cleavage.
(§2) Peptide substrates were labeled with two fluorophores. The two fluorohores used were coumarin (donor) and fluorecein (acceptor), and each of the peptides was bearing one at one end, and one at the other end, which made up fluorescence resonance energy transfer (FRET) pair peptides.
(§3) In a primary reaction, the FRET-peptides were submitted to a phosphorylation reaction, in which one of adenosine triphosphate (ATP)'s phosphate groups was transferred to the peptide in the presence of kinase. When kinase inhibition takes place, the peptide will not be phosphorylated. In a secondary reaction, both the phosphorylated FRET-peptides and the non-phosphorylated FRET-peptides were reacted with a development reagent. It has been observed that non-phosphorylated FRET-peptides were cleaved, whereas the phosphorylted FRET-peptide remained intact.
(§4) Cleavage disrupts FRET between the donor (i.e., coumarin) and acceptor (i.e., fluorescein) fluorophores on the FRET-peptide, whereas uncleaved, phosphorylated FRET-peptides maintain FRET. A ratiometric method, which calculates the Emission Ratio of donor emission to acceptor emission after excitation of the donor fluorophore at 400 nm, is used to quantitate reaction progress, as shown in the equation below. [formula]
(§5) A significant benefit of this ratiometric method for quantitating reaction progress is the elimination of well-to-well variations in FRET-peptide concentration and signal intensities. As a result, the assay yields very high Z'factor values (>0.7) at a low percent phosphorylation. Both cleaved and uncleaved FRET-peptides contribute to the fluorescence signals and therefore to the Emission Ratio. The extent of phosphorylation of the FRET-peptide can be calculated from the Emission Ratio. The Emission Ratio will remain low if the FRET-peptide is phosphorylated (i.e., no kinase inhibition) and will be high if the FRET-peptide is non-phosphorylated (i.e., kinase inhibition).
(§6) The Test Compounds were screened in 1% DMSO. For 10 point titrations, 3-fold serial dilutions were prepared from the starting concentration.
(§7) All Peptide/Kinase Mixtures were diluted to a 2X working concentration in the appropriate Kinase Buffer (50 mM HEPES pH 7.5, 0.01% BRIJ-35, 10 mM MgCl2, 1 mM […]).
(§8) All ATP Solutions were diluted to a 4X working concentration in Kinase Buffer. ATP Km apparent was previously determined using another assay.
(§9) 2.5 µL - 4X Test Compound or 100 nL 100X plus 2.4 µL kinase buffer were mixed together with 2. 5 µL - 2X Peptide/Kinase Mixture and 3. 2.5 µL - 4X ATP Solution.
(§10) The solution was plate-shaked for 30 seconds, then incubated 60 minutes at room temperature for kinase reaction. 5 µL of Development Reagent Solution were then added, followed by a 30-second plate shake and a 60-minute Development Reaction incubation at room temperature. The results were read on a fluorescence plate reader and the data was analyzed.
(§11) The compounds that show the highest Emission Ratio are the ones that also show the highest protein kinase inhibition properties.

[2] = molecular target: T1, NEK1 (Homo sapiens, UniProt Q96PY6)
T1 sequence (Q96PY6 1-1258): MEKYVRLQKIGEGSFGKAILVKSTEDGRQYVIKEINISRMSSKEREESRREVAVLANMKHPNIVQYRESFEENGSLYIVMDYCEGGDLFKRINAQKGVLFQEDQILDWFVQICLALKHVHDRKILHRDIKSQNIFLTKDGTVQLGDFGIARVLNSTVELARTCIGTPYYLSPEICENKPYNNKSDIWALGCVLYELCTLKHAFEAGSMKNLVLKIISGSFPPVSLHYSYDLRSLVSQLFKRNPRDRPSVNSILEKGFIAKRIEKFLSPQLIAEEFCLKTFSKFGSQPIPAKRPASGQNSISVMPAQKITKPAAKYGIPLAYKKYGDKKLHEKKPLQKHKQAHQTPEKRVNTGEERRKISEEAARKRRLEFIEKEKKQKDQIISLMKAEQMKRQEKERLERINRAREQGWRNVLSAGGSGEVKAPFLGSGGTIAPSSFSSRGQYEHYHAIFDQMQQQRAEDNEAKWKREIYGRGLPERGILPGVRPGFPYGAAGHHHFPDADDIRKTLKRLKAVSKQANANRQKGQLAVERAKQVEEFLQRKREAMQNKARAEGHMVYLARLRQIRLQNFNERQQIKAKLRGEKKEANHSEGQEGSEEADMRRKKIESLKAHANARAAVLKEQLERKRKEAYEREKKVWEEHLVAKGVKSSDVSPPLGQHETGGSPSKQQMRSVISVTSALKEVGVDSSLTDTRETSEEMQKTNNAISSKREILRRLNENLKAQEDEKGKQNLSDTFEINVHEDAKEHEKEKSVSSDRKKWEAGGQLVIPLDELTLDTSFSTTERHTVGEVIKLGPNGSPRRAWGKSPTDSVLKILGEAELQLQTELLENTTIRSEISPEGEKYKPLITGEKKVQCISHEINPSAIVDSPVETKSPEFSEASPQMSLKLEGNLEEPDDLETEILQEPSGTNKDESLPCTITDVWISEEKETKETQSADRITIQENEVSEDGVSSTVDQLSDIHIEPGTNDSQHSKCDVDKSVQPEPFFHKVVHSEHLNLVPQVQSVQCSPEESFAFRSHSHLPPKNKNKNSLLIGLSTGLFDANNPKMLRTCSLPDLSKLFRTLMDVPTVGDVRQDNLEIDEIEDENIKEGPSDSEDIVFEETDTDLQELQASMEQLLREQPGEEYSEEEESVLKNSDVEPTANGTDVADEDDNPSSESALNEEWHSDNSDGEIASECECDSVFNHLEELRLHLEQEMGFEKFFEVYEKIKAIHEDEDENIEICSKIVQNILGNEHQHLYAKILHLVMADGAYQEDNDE
Method: as §1, §2, §3, §4, §5, §6, §7, §8, §9, §10, §11

[3] = molecular target: MAPK3 (ERK1) (Homo sapiens, UniProt P27361)
Method: as §1, §2, §3, §4, §5, §6, §7, §8, §9, §10, §11

Chain of MAPK3 (ERK1) (P27361 whole entry, species assumed): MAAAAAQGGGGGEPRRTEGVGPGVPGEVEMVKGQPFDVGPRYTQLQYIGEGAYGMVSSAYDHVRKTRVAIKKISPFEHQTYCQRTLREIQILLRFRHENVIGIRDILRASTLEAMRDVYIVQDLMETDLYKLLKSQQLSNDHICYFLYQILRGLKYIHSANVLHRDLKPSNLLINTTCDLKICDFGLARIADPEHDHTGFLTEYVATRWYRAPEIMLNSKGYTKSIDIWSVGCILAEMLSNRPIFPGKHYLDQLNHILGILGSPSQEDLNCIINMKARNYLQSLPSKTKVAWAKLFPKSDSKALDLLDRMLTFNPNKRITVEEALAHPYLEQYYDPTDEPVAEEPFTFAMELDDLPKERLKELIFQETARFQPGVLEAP

| Structure (SMILES) | inhibition at 10 µM [1] [%] | inhibition at 10 µM [2] [%] | inhibition at 10 µM [3] [%] |
| --- | --- | --- | --- |
| Nc1ncnc2c1ncn2[C@@H]1O[C@H](COC(=O)N[C@@H]2CCN(Cc3ccccc3)C2)[C@@H](O)[C@H]1O [Compound C10] | 1 | 11 | 5 |
| Nc1ncnc2c1ncn2[C@@H]1O[C@H](COC(=O)N2CCC[C@H]2CO)[C@@H](O)[C@H]1O [Compound C9] | -4 | -3 | 5 |
| CC(C)N1CCC(NC(=O)OC[C@H]2O[C@@H](n3cnc4c(N)ncnc43)[C@H](O)[C@@H]2O)CC1 [Compound C19] | -1 | -2 | 4 |
| C[C@@H](NC(=O)OC[C@H]1O[C@@H](n2cnc3c(N)ncnc32)[C@H](O)[C@@H]1O)c1ccc(Cl)cc1 [Compound C4] | 4 | 4 | 6 |
| Nc1ncnc2c1ncn2[C@@H]1O[C@H](COC(=O)N2CCN(Cc3ccccc3)CC2CO)[C@@H](O)[C@H]1O (stereo partly drawn) [Compound C13] | 0 | 4 | 5 |
| Nc1ncnc2c1ncn2[C@@H]1O[C@H](COC(=O)NC[C@H](O)CO)[C@@H](O)[C@H]1O [Compound C8] | 7 | -5 | 12 |
| Nc1ncnc2c1ncn2[C@@H]1O[C@H](COC(=O)NCCCc2nc3ccccc3[nH]2)[C@@H](O)[C@H]1O [Compound C1] | 3 | -4 | 5 |

More lines, now with the values ahead:

| inhibition at 10 µM [1] [%] | inhibition at 10 µM [2] [%] | inhibition at 10 µM [3] [%] | Structure (SMILES) |
| --- | --- | --- | --- |
| -8 | -2 | 1 | Nc1ncnc2c1ncn2[C@@H]1O[C@H](COC(=O)NCCN2CCCC2=O)[C@@H](O)[C@H]1O [Compound C22] |
| 1 | -5 | -2 | Nc1ncnc2c1ncn2[C@@H]1O[C@H](COC(=O)N2CCC(Cc3ccc(F)cc3)C2)[C@@H](O)[C@H]1O (stereo partly drawn) [Compound C66] |
| -5 | -7 | 3 | Nc1ncnc2c1ncn2[C@@H]1O[C@H](COC(=O)N2CCN(C(=O)N3CCOCC3)CC2)[C@@H](O)[C@H]1O [Compound C89] |
| -3 | -3 | 10 | Nc1ncnc2c1ncn2[C@@H]1O[C@H](COC(=O)N2CCS(=O)(=O)CC2)[C@@H](O)[C@H]1O [Compound C100] |
| 2 | 0 | 8 | CS(=O)(=O)N1CC2(CCN(C(=O)OC[C@H]3O[C@@H](n4cnc5c(N)ncnc54)[C@H](O)[C@@H]3O)CC2)c2ccccc21 [Compound C98] |
| -1 | 1 | 2 | CN(C)CCNC(=O)OC[C@H]1O[C@@H](n2cnc3c(N)ncnc32)[C@H](O)[C@@H]1O [Compound C85] |
| -1 | 6 | 4 | N#CCCN1CCN(C(=O)OC[C@H]2O[C@@H](n3cnc4c(N)ncnc43)[C@H](O)[C@@H]2O)CC1 [Compound C70] |
| -4 | -7 | 8 | Nc1ncnc2c1ncn2[C@@H]1O[C@H](COC(=O)N2CCN(CCc3ccccc3)CC2)[C@@H](O)[C@H]1O [Compound C26] |
| 0 | 7 | 2 | CN1CCN(CCNC(=O)OC[C@H]2O[C@@H](n3cnc4c(N)ncnc43)[C@H](O)[C@@H]2O)CC1 [Compound C46] |
